“Also recorded” adds a separate entry of the source.
What was measured:
PHN = conditions: in vivo; cited from earlier work
[1] = 5% lidocaine plaster applied to skin; cited from earlier work
PHN symptoms = conditions: human, in vivo; cited from earlier work
[2] = tested on: post-herpetic neuralgia (PHN) pain; experiment: Applicant's clinical observations of Trimeprazine tartrate in post-herpetic neuralgia; assay type: in vivo, human; conditions: not a randomized clinical trial
Source text: While the clinical observations are not from a randomized clinical trial and could be subject to placebo effects and other confounders, they offer a promising finding for this devastating facial pain condition.

[3] = tested on: patients suffering from trigeminal neuralgia (TN); experiment: Non-randomized clinical observations of Trimeprazine in patients (n=7) with trigeminal neuralgia; assay type: in vivo, human; conditions: for overall efficacy on TN pain: seven TN patients, non-randomized
Source text: A middle-aged patient suffers from classic trigeminal (Type 1) neuralgia presenting with sharp, lancinating, severe pain in their left face precipitated by showering, eating, facial animation, touch of their facial skin and nose, and brushing their teeth. The episodes of pain are initiated by the stimuli above and immediately stop all other activity until they subside in several seconds. Their behavior is modified to avoid the stimuli above, even affecting how they speak and eats. […] Their daily activities are dominated by fear of inducing another attack.
The patient began treatment with Trimeprazine 5 mg morning and evening.
The disease had caused cutaneous anesthesia in the right forehead and cheek. […] Beginning at about 19 years after the bout of Lyme disease they noted sharp lightning-like pains in their right cheek. Brief and usually during cutaneous stimulation, like being in a shower. There were perhaps one or two of these occurrences per year. At 22 years after the initial Lyme disease, they experienced a severe attack of Trigeminal Neuralgia (TN) affecting their right cheek (Type 1). There were on average 8 bouts of severe stabbing pain per day precipitated by facial animation, touching, opening their mouth to eat, brushing their teeth, and even a gust of cold wind. They treated themself with doxycycline, fearing a reactivation of Lyme disease.
They were quite miserable, being unable to even brush their teeth without precipitating a severe bout of pain.
Patient is a person who suffers from TN which began 3 years ago after a dental procedure. The TN was manifest by sharp, lancinating pain in the left side of their jaw (Type. 1). These periods of pain were episodic, precipitated by stimuli like brushing their teeth, at least once per day, with periods of vulnerability lasting 3-4 weeks each occurring 3-4 times per year. Their parent had suffered with the same pattern of TN. When started on Trimeprazine they were also taking Pregabalin.
Patient is a young person who developed severe ophthalmic herpes zoster involving the right side of their face and their right eye. They had extensive ocular involvement requiring medications for a full year. Their corneal difficulties were accompanied by a severe lingering neuralgia in the affected ophthalmic distribution of the trigeminal nerve (Type 2), which plagued their every waking hour. They were on 12 medications including carbamazepine 200 mg BID and pregabalin 150 mg TID, ophthalmic medications, and oxycodone as needed for pain relief.
This patient suffered from shingles on their forehead which was followed by lingering neuralgia in the affected ophthalmic distribution of the trigeminal nerve.

histamine H1-receptor = histamine H1-receptor (Homo sapiens, UniProt P35367); conditions: more potent; cited from earlier work
Chain of histamine H1-receptor (P35367 whole entry, species assumed): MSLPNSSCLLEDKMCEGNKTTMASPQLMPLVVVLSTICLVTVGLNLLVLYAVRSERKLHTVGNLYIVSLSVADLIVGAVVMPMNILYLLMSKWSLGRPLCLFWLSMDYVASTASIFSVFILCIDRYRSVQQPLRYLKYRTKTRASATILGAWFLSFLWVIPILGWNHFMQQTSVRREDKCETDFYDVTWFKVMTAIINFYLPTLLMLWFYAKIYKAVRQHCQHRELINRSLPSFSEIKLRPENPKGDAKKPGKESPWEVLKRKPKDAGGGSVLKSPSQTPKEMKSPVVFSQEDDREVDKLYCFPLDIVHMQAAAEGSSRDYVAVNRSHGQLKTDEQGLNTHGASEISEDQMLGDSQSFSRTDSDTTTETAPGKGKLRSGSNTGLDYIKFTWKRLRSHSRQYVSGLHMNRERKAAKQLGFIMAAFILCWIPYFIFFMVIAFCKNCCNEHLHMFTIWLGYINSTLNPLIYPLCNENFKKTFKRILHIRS

classic TN = conditions: 100-400 mg/d; 8 patients with classic TN; cited from earlier work
mu-opioid receptors = mu-opioid receptors (Homo sapiens, UniProt P35372); conditions: cited from earlier work
Chain of mu-opioid receptors (P35372 whole entry): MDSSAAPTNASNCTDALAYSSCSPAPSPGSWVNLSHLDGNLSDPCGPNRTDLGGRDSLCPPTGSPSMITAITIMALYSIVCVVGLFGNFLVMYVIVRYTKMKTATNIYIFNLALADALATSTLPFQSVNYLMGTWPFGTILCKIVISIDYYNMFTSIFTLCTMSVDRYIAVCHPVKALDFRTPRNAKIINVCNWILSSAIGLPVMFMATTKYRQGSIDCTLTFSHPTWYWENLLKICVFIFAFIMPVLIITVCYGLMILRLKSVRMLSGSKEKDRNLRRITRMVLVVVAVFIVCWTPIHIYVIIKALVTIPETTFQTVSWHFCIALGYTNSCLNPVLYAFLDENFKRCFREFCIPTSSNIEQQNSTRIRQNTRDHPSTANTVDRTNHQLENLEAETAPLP

TN [4] = conditions: 10 patients with TN; cited from earlier work
TN [5] = conditions: 23 patients; add-on therapy; cited from earlier work
[6] = cited from earlier work
[7] = Example 5, four months or so after

Molecule: CC(C)C[C@H](CN)CC(=O)O [pregabalin]
- analgesic property relative to gabapentin (PHN): 6 times

Molecule: CCN(CC)CC(=O)Nc1c(C)cccc1C [Lidocaine]
- fraction of the drug reaching the systemic circulation [1]: 3%

Molecule: Botulinum Toxin A [BTX-A]
- cases in which effective in reducing pain (PHN symptoms): 31%
- cases with significant outcomes (PHN symptoms): 46.6%
- side effects (PHN symptoms): mild

Molecule: Trimeprazine tartrate
- effectiveness on PHN pain [2]: effectiveness in alleviating pain
- overall efficacy on TN pain [3]: effectiveness in alleviating pain

Molecule: Cc1ccc(/C(=C\CN2CCCC2)c2ccccn2)cc1 [E-triprolidine]
- potency relative to Z-triprolidine (histamine H1-receptor): 1000 fold

Molecule: CC1(C)O[C@@H]2[C@@H](CO[C@@]3(COS(N)(=O)=O)OC(C)(C)O[C@@H]23)O1 [Topiramate]
- patients in whom found effective (classic TN): 75%

Molecule: CC[C@@H](c1cccc(O)c1)[C@@H](C)CN(C)C [Tapentadol]
- times less potent than morphine in binding mu-opioid receptors (mu-opioid receptors): 18 times

Molecule: CC[C@@H](C(N)=O)N1CCCC1=O [levetiracetam]
- improvement (TN [4]): 50-90%
- reduction in number of daily attacks (TN [5]): 62%

Molecule: CC(CN(C)C)CN1c2ccccc2Sc2ccccc21 (stereo not shown) [Trimeprazine]
- LogP [6]: 4.71
- pain ([3]; Example 1, TN Type 1, 5 mg morning and evening, after four days of medication): all pain was gone
- intensity and frequency of the attacks ([3]; Example 1, middle-aged male, TN Type 1, 5 mg morning and evening, second day of the course): in decline
- side-effects ([3]; Example 1, 5 mg): no side-effects other than drowsiness
- later discomfort in face ([3]; Example 1, ½ to 1 pill of 5 mg once or twice a day): successfully alleviated
- recurring sharp pains ([3]; Example 2, person, TN Type 1, recurrences at seven and eleven months after the TN attack, 5 mg twice a day): immediately stop all recurring pains
- recurrent attacks of TN ([3]; Example 2, in the 12 months since the last treatment): no recurrent attacks of TN
- pain ([3]; Example 3, elderly male, TN Type 1 uncontrolled with carbamazepine and gabapentin, 5 mg twice a day, by ten days after starting treatment): essentially pain free
- duration of relief ([3]; Example 3, 5 mg twice a day): enduring
- tolerability ([3]; Example 3, 5 mg twice a day): except for some drowsiness, tolerated the medicine well
- jaw pain ([3]; Example 4, person, TN Type 1, also taking Pregabalin, after a first course of 10 days, 5 mg BID): jaw pain was gone
- sensitive area on the side of head above ear ([3]; Example 4, second course 5 mg BID for several days): disappeared entirely
- improvement of neuralgia ([3]; Example 5, young person, TN Type 2 after ophthalmic herpes zoster, by 5 days after starting the medication): some improvement
- average pain (patient-reported) [3, 7]: 2
- max pain (patient-reported) [3, 7]: 5
- patient-reported relief of head pain ([3]; Example 6, TN Type 2 after shingles, 5 mg BID, by 6 days after starting): it does help my head
- Clinical Outcome ([3]; Patient 1, TN Type 1): Relief, no additional
- Comment ([3]; Patient 1, TN Type 1): Pain gone day 3
- Clinical Outcome ([3]; Patient 2, TN Type 1): Relief, no additional
- Comment ([3]; Patient 2, TN Type 1): 3 subsequent attacks
- Clinical Outcome ([3]; Patient 3, TN Type 1): Relief, no additional
- Comment ([3]; Patient 3, TN Type 1): “So nice to be pain
- Clinical Outcome ([3]; Patient 4, TN Type 1): Relief, no additional
- Comment ([3]; Patient 4, TN Type 1): Facial pain gone
- Comment ([3]; Patient 5, TN Type 2): Better and continuing
- Clinical Outcome ([3]; Patient 6, TN Type 2): Better, can travel
- Clinical Outcome ([3]; Patient 7, TN Type 2): Better, no additional
- Comment ([3]; Patient 7, TN Type 2): “No bother now”
- overall efficacy on TN pain [3]: demonstrated efficacy; also recorded: significant pain relief
- overall efficacy on TN pain ([3]; listed as trimeprazine): reduced or relieved
- patients with long-term pain relief, no recurrence of symptoms for over 12 months ([3]; subset of TN patients treated with Trimeprazine): two out of seven
